Results: patent publication US10597398B2, “Suppression and regeneration promoting effect of low molecular weight compound on cancer and fibrosis” (NATIONAL UNIVERSITY CORPORATION TOTTORI UNIVERSITY, priority 2015, dated 2020)

Assays:
mesenchymal stem cell = experiment: Hepatocyte differentiation-inducing effect, summary statements on Example 4 (readout not specified); format: cell-based, human; settings: low concentration
Text: Albumin, a hepatocyte marker, was used as an indicator, and RNA was collected from cells treated with each compound. Next, a hepatocyte differentiation-inducing effect was examined by real-time RT-PCR. The concentrations of the respective compounds were as described in FIG. 35. Each control sample used was 0.1% DMSO, a solvent for each compound.
By using urea synthesis, a hepatocyte function, as an indicator, a hepatocyte differentiation-inducing effect of each compound was investigated.
The cells treated with each compound were subjected to immunofluorescence analysis of albumin, a hepatocyte marker, to investigate a hepatocyte differentiation-inducing effect. The concentrations of the respective compounds were as described in FIG. 37. Each control sample used was 0.1% DMSO, a solvent for each compound.
By using glycogen synthesis, a hepatocyte function, as an indicator, a hepatocyte differentiation-inducing effect of each compound was investigated.

HuH-7 cells = experiment: Growth inhibitory effect on cancer cells (WST assay), Example 6.3; format: cell-based, human
Procedure: HuH-7 cells, a human liver cancer cell line, were cultured on 10-cm cell culture dishes (TPP Techno Plastic Products AG, Trasadingen, Switzerland) by using DMEM under conditions at 5% CO2, 37° C., and 100% humidity. When the cells were 70 to 90% confluent, 200 μL of 0.25% Trypsin/1 mM EDTA solution, which had been prepared by diluting the stock solution 10-fold with PBS (−), was added to detach the cells. Then, the cells were centrifuged at 1000 rpm for 3 min at room temperature. The cells recovered were subcultured at a 1:4 split ratio.
First, 70 to 90% confluent HuH-7 cells were harvested and seeded (n=3) at 1×10^4 cells/well of a 96-well plate (TPP). After 24 h, IC-2 was added to the cells and the mixture was cultured at 37° C. Each control sample (0 μM) used was 1% DMSO, a solvent for each compound. The concentrations of IC-2 used were 0, 1, 5, 10, 25, and 50 μM
Next, day 4 after the IC-2 treatment, 100 μL of DMEM-diluted 10% Cell Counting Kit-8 (DOJINDO LABORATORIES, Kumamoto) was added. The mixture was incubated at 37° C. for 60 min and its absorbance (at a measurement wavelength of 450 nm/control wavelength of 600 nm) was measured by using a Sunrise Rainbow RC (Tecan Group Ltd., Mannedorf, Switzerland). Absorbance for the cells alone was calculated by subtracting, from the reading obtained, absorbance for 10% Cell Counting Kit-8 alone. […]

[1] = test system: cancer stem cells (CD44) in HuH-7 cells; experiment: Inhibitory effect on cancer stem cells (FCM analysis of CD44), Example 6.4; format: cell-based, human; settings: CD44, day 2, IC-2 50 μM, 5-FU 0.5 μM, compared with control 1% DMSO
Procedure: CD44, a cancer stem cell marker, was used as an indicator to examine an inhibitory effect of IC-2 on cancer stem cells. First, 70 to 90% confluent HuH-7 cells were harvested and seeded at 1.5×10^6 cells per 10-cm cell culture dish. After 15 h, the cells were treated with hexachlorophene (15 μM), ICG-001 (15 μM), PKF118-310 (5 μM), IC-2 (50 μM), or 5-FU (0.5 μM), and the mixture was cultured at 37° C. Each control sample used was 1% DMSO, a solvent for each compound or the anti-cancer drug. Day 2 after the drug treatment, the cells were harvested from each culture dish. The cells were centrifuged at 1000 rpm and at 4° C. for 5 min to remove a supernatant and were then washed twice with 1 mL of 0.5% FBS/2 mM EDTA/PBS. Next, the cells were suspended in 500 μL of 5% BSA/0.5% FBS/2 mM EDTA/PBS for blocking at 4° C. for 15 min.
Then, 5 μL of a mouse anti-human CD44 monoclonal antibody (156-3C11, Cell Signaling Technology Inc., Danvers, Mass.) was added to 500 μL of the cell suspension. The mixture was resuspended and subjected to a primary antibody reaction in a dark room at 4° C. for 10 min. After that, the cells were washed 3 times with 1 mL of PBS. Subsequently, 1.0 μg of Alexa Fluor 488-labeled IgG (H+L) (Life Technologies Corp., Carlsbad, Calif.) was added and the mixture was suspended. Then, a secondary antibody reaction was carried out in a dark room at 4° C. for 10 min. […]

[2] = test system: HSC2 cells (squamous cell carcinoma cells); experiment: Growth of squamous cell carcinoma cells (Cell Counting Kit-8); format: cell-based; settings: HSC2 cells, 0, 24, 72, 96 h
Procedure: HSC2 cells (squamous cell carcinoma cells) were seeded at 2.5×10^3 cells/well of a 96-well plate (TPP Techno Plastic Products AG, Trasadingen, Switzerland). Next, 0, 24, 72, and 96 h after that, 100 μL of 10% Cell Counting Kit-8 (DOJINDO LABORATORIES, Kumamoto) was added. The mixture was incubated at 37° C. and its absorbance (at a measurement wavelength of 450 nm/control wavelength of 600 nm) was measured by using a Sunrise Rainbow RC (Tecan Group Ltd., Mannedorf, Switzerland).

[3] = test system: CD44-expressing HSC2 cells; experiment: CD44-expressing cells in HSC2 cells (cell sorter analysis); format: cell-based, human; settings: 48 h, 25 μM IC-2 or 0.5 μM 5-FU, 83.9% without treatment
Procedure: In addition, HSC2 cells were seeded at 5×10^5 cells/10-cm cell culture dish (TPP). After 24 h, the cells were treated with 0.5 μM of 5-FU or 25 μM of IC-2. Also prepared were cells without low-molecular-weight compound treatment (0 μM). After additional 48 h, the respective cells were harvested. As a primary antibody, used was a mouse anti-human CD44 antibody (Abcam Ltd., Cambridge, UK). Then, Alexa Fluor 488-labeled goat anti-mouse IgG (H+L) (Life Technologies Corp., Carlsbad, Calif.) was used. After that, a cell sorter BD bioscience FACS Aria (Becton, Dickinson and Company, Franklin Lakes, N.J.) was used for analysis.

Wnt/β-catenin signal = settings: as described in Patent Literature 1; cited from earlier work

COc1ccc(COc2ccc(CNC(=O)N3CCC(=O)N4C(Cc5ccccc5)C(=O)N(Cc5cccc6ccccc56)CC34)cc2)cc1 (stereo not shown) [IC-2-OPMB]
hepatocyte-inducing effect at low concentration (mesenchymal stem cell): exerted a hepatocyte-inducing effect

O=C1C(Cc2ccccc2)N2C(=O)CCN(C(=O)NCc3ccccc3)C2CN1Cc1cccc2ccccc12 (stereo not shown) [IC-2]
growth of HuH-7 cells (HuH-7 cells; day 4): inhibited the growth of HuH-7 cells
IC50 (HuH-7 cells; day 4, 0-50 μM, control 1% DMSO): 25.9 µM
number of cancer stem cells [1]: significant reduction in the number of cancer stem cells
growth inhibitory effect on squamous cell carcinoma cells [2]: exhibited a growth inhibitory effect
percentage of CD44-expressing cells [3]: 71.4%
Wnt/β-catenin signal in a mesenchymal stem cell and differentiation into hepatocytes (Wnt/β-catenin signal): inhibit a Wnt/β-catenin signal in a mesenchymal stem cell, thereby inducing differentiation of the mesenchymal stem cell into hepatocytes
